Consider 11 compounds from patent US20240279201A1, “DUAL WNT SIGNALING PATHWAY INHIBITORS AND AMPK ACTIVATORS FOR TREATMENTS OF DISEASE” (priority 2021, published 2024).

For data set [1], the system named is AMPK. The data set can be described thus: AMPK activation in SW620 cells (immunoblotting). The data set is classed as cell-based. How it is done:
HEK293 cells were stained with anti-axin-1 or DAPI and studied under fluorescence microscopy. FIG. 26B is an image illustrating enhanced AMPK phosphorylation by Axin overexpression (empty pcDNA3 vs. pcDNA3-Axin-1) in HEK293 cells. […] See FIG. 23A-FIG. 23C for Axin knockdown. […] Cells were treated for 24 h.
Treatment of compound YW2049 indicated no effects on total protein levels of AMPK and ACC in SW620 cells.
The effects of FX analogs in Axin stabilization and AMPK activation were further studied by genetic manipulation of Axin. Axin overexpression led to enhanced AMPK activation (FIG. 26A and FIG. 26B). In contrast, it has been reported that knockdown of Axin in cells and in mouse liver impairs AMPK activation. […] This timeline is consistent with the reports that Axin can form a complex with AMPK.
Background: In western blotting, separated proteins are transferred to a membrane and probed.

The test system of the next data set is CRC cells. The note with it: as reported in literature; cited from earlier work.
In data set [2] the test system is SW480, SW620, and HT29 cells. The data set can be described thus: Colony formation assay. The data set is classed as cell-based. The source says:
FIG. 23A is an image illustrating a colony formation assay. […] The orange circle indicates cells in early apoptosis.

In a further data set the test system is SW620 xenograft. The data set can be described thus: SW620 xenograft in nude mice. The format is in vivo.
A further data set concerns the target RPS6KA3 (Homo sapiens (Human), UniProt P51812). The data set can be described thus: Off-target kinase panel, RPS6KA3. The note with it: read-out: inhibition of RPS6KA3.
Another data set deals with Axin 1 (Homo sapiens (Human), UniProt O15169). The data set can be described thus: Western blotting of Axin 1 in HEK293 cells. The note with it: 100 nM, 24 h. The data set is classed as cell-based. The procedure: (§1) FIG. 6A-FIG. 6E illustrate the development of Axin stabilizers with dual activities of Wnt inhibition and AMPK activation. […] HEK293 cells were used. B&C: 100 nM compounds, 24 h. FIG. 6D is a table showing the activity profile of YA6060. F=bioavailability; soubility is aqueous solubility.
(§2) A dual-luciferase gene reporter assay was used to test inhibitory activities of new compounds on Wnt signaling. […] Axin is also reported to form a complex with AMPK and its upstream kinase LKB1 (FIG. 12A and FIG. 12B) to facilitate AMPK activation. Therefore, the effects of new compounds on AMPK was examined. […] YA6060 and its analogs had dual activities of potent Wnt signaling inhibition and AMPK activation, which were dependent on the levels of scaffolding protein Axin.

The nature of a further data set: in vivo. The note with it: C57/BL6, mouse, in vivo, po. The procedure: (§3) The ADMET and PK properties of YA6060 was determined.
PK/Tox. The four selected compounds from in vitro evaluation above are subjected to PK and toxicity assessment in C57/BL6 mice. […] Compound concentrations is determined by LC/MS/MS. PK analysis is carried out on Phoenix Winnolin using non-compartmental analysis and compartment models. Compound accumulation in major tissues, including liver, kidney, heart, brain and intestine, are quantified. […] For study ii, a half number of mice per group are sacrificed immediately after the 3-week course and the remaining after a 2-week washout period to assess delayed toxicity. In toxicity studies, blood is collected upon euthanasia for liver and renal chemistries and complete blood counts, and major organs harvested and examined macro- and microscopically by veterinarian pathologists. It is expected that an understanding of PK properties, such as bioavailability, AUC, clearance, and toxic effects, such as general tolerance and specific toxicity in the liver, kidney, other major organs, and particularly Wnt-dependent tissues, such as intestine, stomach, and skin is established for these selected compounds.

Data set [3] is described as follows: Cytotoxicity (CC50) during the luciferase gene reporter assay. The data set is classed as cell-based. The note with it: human, HEK293 cells; short treatment duration of the luciferase gene reporter assay.
The subject of another data set is SW480 cells. The data set can be described thus: Mitochondrial function in SW480 cells.
Another data set has as its target β-catenin (Homo sapiens (Human), UniProt P35222). The data set can be described thus: Western blotting of β-catenin in HEK293 cells. The data set is classed as cell-based. The note with it: 100 nM, 24 h. The procedure:
as §1, §2

The next data set concerns HT29 cells. The data set can be described thus: Viability of HT29 cells. The format is cell-based. The note with it: Homo sapiens, HT-29, read-out: IC50, cell viability.
Data set [4] deals with Wnt signaling in SW620 cells. The data set can be described thus: Luciferase gene reporter (TOPflash) assay in SW620 cells. The note with it: Homo sapiens, SW-620, read-out: IC50, inhibition of Wnt signaling. The data set is classed as cell-based.
A further data set can be described thus: physchem. The note with it: water, aqueous solubility. How it is done: as §3
Determination of physiochemical properties. The profiles of six selected analogs is estimated in silico, and selected Axin stabilizers are evaluated in in vitro assays: the aqueous solubility is determined using a multiscreen solubility filter plate (Millipore, Billerica, MA) coupled with LC-MS/MS, as performed for the already synthesized YA6060 analogs; the cell viability assays on selected analogs is measured using HEK293 cells; the intestinal permeability by determining the transport from the apical to the basolateral (A to B) in Caco-2 monolayers; the metabolic stability by incubating the compounds with mouse microsomes and liver tissue S9 fraction and analyzing by LC-MS/MS.

Data set [5] deals with AMPK. The data set can be described thus: Western blotting of phosphorylated AMPK in HEK293 cells. The data set is classed as cell-based. The note with it: 100 nM, 24 h. How it is done: as §1, §2
Data set [6] deals with Wnt signaling in SW480 cells. The data set can be described thus: Luciferase gene reporter (TOPflash) assay in SW480 cells. The data set is classed as cell-based, human.
Data set [7] relates to Wnt/β-Catenin signaling pathway. The data set can be described thus: Wnt signaling luciferase (TOPflash) reporter gene assay. The note with it: for IC50: luciferase reporter gene assay, mean of three independent experiments, read-out: IC50 (nM) to inhibit the Wnt signaling activity. The format is cell-based. The source says:
A dual-luciferase gene reporter assay was used to test inhibitory activities of new compounds on Wnt signaling. […] Therefore, the effects of new compounds on AMPK was examined. […]
(Reporter assays use an easily measured gene product as a stand-in for the process of interest.)

The next data set concerns HEK293 cells. The data set can be described thus: Cytotoxicity (CC50) during the luciferase gene reporter assay. The format is cell-based. The note with it: short treatment duration of the luciferase gene reporter assay.

RPS6KA3, sequence (P51812 whole entry, species assumed): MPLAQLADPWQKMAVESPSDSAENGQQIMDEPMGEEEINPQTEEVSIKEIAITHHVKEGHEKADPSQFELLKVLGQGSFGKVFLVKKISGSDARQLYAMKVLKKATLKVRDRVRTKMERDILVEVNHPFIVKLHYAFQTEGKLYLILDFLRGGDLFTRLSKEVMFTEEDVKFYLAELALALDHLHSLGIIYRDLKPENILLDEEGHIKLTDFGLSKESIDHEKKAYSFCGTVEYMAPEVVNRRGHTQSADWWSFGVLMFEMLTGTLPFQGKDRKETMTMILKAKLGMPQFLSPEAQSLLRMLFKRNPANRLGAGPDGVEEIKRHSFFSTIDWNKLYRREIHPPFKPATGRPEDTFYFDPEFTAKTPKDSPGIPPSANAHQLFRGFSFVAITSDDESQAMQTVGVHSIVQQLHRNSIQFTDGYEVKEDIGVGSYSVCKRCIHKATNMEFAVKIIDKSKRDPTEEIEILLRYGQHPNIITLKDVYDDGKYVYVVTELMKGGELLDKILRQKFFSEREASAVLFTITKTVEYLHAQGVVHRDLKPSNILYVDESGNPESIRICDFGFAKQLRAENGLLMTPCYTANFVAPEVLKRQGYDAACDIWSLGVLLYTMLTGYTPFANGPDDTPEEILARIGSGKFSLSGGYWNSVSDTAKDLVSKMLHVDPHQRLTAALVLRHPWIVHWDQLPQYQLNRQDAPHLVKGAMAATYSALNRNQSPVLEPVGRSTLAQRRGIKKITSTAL

For `Cc1ccccc1-n1nnc(C(=O)Nc2ccc3ccccc3n2)c1C` [YW1128], the p-AMPK levels entry in the data set on AMPK [1] is reported as “increased”.
For the compound `O=c1[nH]cc(F)c(=O)[nH]1` [5-FU], the “IC50 in killing CRC cells” value in the data set with CRC cells is reported as “low μM”.
Take `O=C1[O][Pt]2([NH][C@@H]3CCCC[C@H]3[NH]2)[O]C1=O` [oxaliplatin]: in the data set with CRC cells, the “IC50 in killing CRC cells” value is listed as “low μM”.
`Cc1c(C(=O)Nc2ccc3ccccc3n2)cnn1-c1ccccc1Br` [YW2065]: in [2], the colony formation result is listed as “inhibited the colony formation”. The “tumor growth and tumor weight” value with SW620 xenograft (i.p. each day, dose-dependent) is given as “reduced both tumor growth”. Further, the body weight gain result with SW620 xenograft (mouse, in vivo) was “not affected”. For the same compound, the inhibition at 1000 µM on RPS6KA3 was found to be 39%. Moreover, on Axin 1, the “level of Axin 1” value was “stabilizing”. Also, the bioavailability in the data set “in vivo” came to 13%. In addition, the CC50 in data set [3] is greater than 92000 nM. Moreover, the “O2 consumption rate and ATP production” value in the data set on SW480 cells was “reduced O2 consumption rate”. The “protein level of β-catenin” value on β-catenin was “decreased”. Besides, the p-AMPK levels result in the data set with AMPK [1] is reported as “increased”. The IC50 came out at 17000 nM in the data set on HT29 cells; 0.19 nM in data set [4]; 1.2 nM in [6] (Homo sapiens, read-out: IC50, inhibition of Wnt signaling). In “physchem”, the solubility was less than 10 µg/mL. For the same compound, the “levels of phosphorylated AMPK (p-AMPK)” value in the data set on AMPK [5] was “significantly increased”. For the same compound, the “extent of inhibition of Wnt signaling activity in reporter assays” value in data set [6] is “could abolish Wnt activity at high concentrations”.
On to `Cc1ccccc1-n1nnc(C(=O)Nc2ccc3cc(CN4CCNCC4)ccc3n2)c1C` [YA10951, 5-Methyl-N-(6-(piperazin-1-ylmethyl)quinolin-2-yl)-1-(o-tolyl)-1H-1,2,3-triazole-4-carboxamide], for which the IC50 in data set [7] was determined as 4.3 nM. The compound further came in with a CC50 with HEK293 cells greater than 92000 nM.
`Oc1nc(-c2ccc(C(F)(F)F)cc2)nc2c1CSCC2` [XAV939, reference compound] registered an inhibition at 1 µM in data set [7] of 74%. Also, in [3], the CC50 is greater than 92000 nM. In [6], the “extent of inhibition of Wnt signaling activity in reporter assays” value was “could not fully inhibit Wnt signaling activity”.
In the case of `Cc1ccccc1-n1nnc(C(=O)Nc2nc3c(Cl)cccc3s2)c1C` [YA4095, N-(4-Chlorobenzo[d]thiazol-2-yl)-5-methyl-1-(o-tolyl)-1H-1,2,3-triazole-4-carboxamide], in [7], the inhibition at 1 µM came out at 8% and the IC50 was greater than 1000 nM. Moreover, the CC50 in data set [3] is greater than 92000 nM.
The matching figures for `Cc1ccccc1-n1nnc(C(=O)Nc2nc3cc(Br)ccc3s2)c1C` [YA4047, N-(5-Bromobenzo[d]thiazol-2-yl)-5-methyl-1-(o-tolyl)-1H-1,2,3-triazole-4-carboxamide]: 14%, greater than 1000 nM and greater than 92000 nM.
As for `Cc1c(C(=O)Nc2cnc3ccccc3n2)nnn1-c1ccccc1F` [YA6138, 1-(2-Fluorophenyl)-5-methyl-N-(quinoxalin-2-yl)-1H-1,2,3-triazole-4-carboxamide], the IC50 in [7] came out at 0.15 nM. In data set [3], the CC50 is greater than 92000 nM.
For `CC(C)(C)c1c(C(=O)Nc2nc3ccccc3s2)nnn1-c1ccccc1F` [YA6176, N-(Benzo[d]thiazol-2-yl)-5-(tert-butyl)-1-(2-fluorophenyl)-1H-1,2,3-triazole-4-carboxamide], in [7], testing at 1 µM gave an inhibition of 58% and the IC50 was determined as 251 nM. In addition, in [3], the CC50 was greater than 92000 nM.
Take `Cc1ccccc1-n1nnc(C(=O)Nc2nc3cc(Cl)ccc3s2)c1C` [YA4013, N-(5-Chlorobenzo[d]thiazol-2-yl)-5-methyl-1-(o-tolyl)-1H-1,2,3-triazole-4-carboxamide]: in data set [7], testing at 1 µM gave an inhibition of 61% and the IC50 is 202 nM. For the same compound, in [3], the CC50 is greater than 92000 nM.

A word on the inhibition: it is the share of the control response that was lost under treatment. The term bioavailability denotes dose-corrected exposure relative to a reference, in per cent. High values mean good availability, low ones poor availability. One may read the CC50 as the concentration that lowers cell viability or growth by half. High values mean lower toxicity to the cells, low ones greater toxicity to the cells. In general, IC50 refers to the concentration that inhibits the measured activity by half. The term solubility denotes the dissolved amount per volume that the medium holds.
